Patent US7803930B2, “Antisense modulation of apolipoprotein B-expression” (Isis Pharmaceuticals, Inc., priority 2002, dated 2010)
In the oligonucleotide strings, read from the 5' end, every base follows the letter of its sugar. An asterisk marks phosphorothioate; unmarked linkages are phosphodiester. Other units and linkages are bracketed, terminal groups are in braces. A string of capitals states the bases alone. e = 2'-O-(2-methoxyethyl) (MOE); [5mC] = 5-methylcytosine; d = 2'-deoxy (DNA)

Test system: human apolipoprotein B mRNA
Assay: Inhibition of human apolipoprotein B mRNA levels in HepG2 cells, quantitative real-time PCR
Format: cell-based
Conditions: averages from two experiments; for % INHIB / % INHIB 50 nm / % INHIB 150 nm: HepG2 cells; for % INHIB 50 nm / % INHIB 150 nm: Table 11 gene walk
Method in brief: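 HepG2 cells at 80% confluency were transfected with antisense oligonucleotide using 3.75 μg/mL Lipofectin in Opti-MEM for 4-7 h and harvested 16-24 h after treatment. Apolipoprotein B mRNA was measured by real-time RT-PCR and normalized to GAPDH or RiboGreen total RNA. Percent inhibition came from untreated-control standard curves.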

[1] = human apolipoprotein B mRNA, oligonucleotides targeting genomic sequence SEQ ID NO 334

| Substance | % INHIB 50 nm | % INHIB 150 nm (150 nM) | other results |
| --- | --- | --- | --- |
| 301204 (antisense eA*eG*e[5mC]*eT*e[5mC]*d[5mC]*dA*dT*dA*d[5mC]*dT*dG*dA*dA*dG*eT*e[5mC]*e[5mC]*eT*eT) [compound 301204] | – | – | % INHIB [1]: 37% |
| 301205 (antisense e[5mC]*eA*eA*eT*eT*d[5mC]*dA*dA*dT*dA*dA*dA*dA*dG*d[5mC]*eT*e[5mC]*e[5mC]*eA*eT) [compound 301205] | – | – | % INHIB [1]: 31% |
| 301206 (antisense eG*eT*eT*eT*eT*d[5mC]*dA*dA*dA*dA*dG*dG*dT*dA*dT*eA*eA*eG*eG*eT) [compound 301206] | – | – | % INHIB [1]: 28% |
| 301207 (antisense eT*eT*e[5mC]*e[5mC]*e[5mC]*dA*dT*dT*d[5mC]*d[5mC]*d[5mC]*dT*dG*dA*dA*eA*eG*e[5mC]*eA*eG) [compound 301207] | – | – | % INHIB [1]: 13% |
| 301208 (antisense eT*eG*eG*eT*eA*dT*dT*dT*dA*d[5mC]*d[5mC]*dT*dG*dA*dG*eG*eG*e[5mC]*eT*eG) [compound 301208] | – | – | % INHIB [1]: 21% |
| 301209 (antisense eA*eT*eA*eA*eA*dT*dA*dA*dT*dA*dG*dT*dG*d[5mC]*dT*eG*eA*eT*eG*eG) [compound 301209] | – | – | % INHIB [1]: 39% |
| 301210 (antisense e[5mC]*eT*eA*eT*eG*dG*d[5mC]*dT*dG*dA*dG*d[5mC]*dT*dT*dG*e[5mC]*e[5mC]*eT*eA*eT) [compound 301210] | – | – | % INHIB [1]: 33% |
| 301211 (antisense e[5mC]*eT*e[5mC]*eT*e[5mC]*dT*dG*dA*dA*dA*dA*dA*dT*dA*dT*eA*e[5mC]*e[5mC]*e[5mC]*eT) [compound 301211] | – | – | % INHIB [1]: 17% |
| 301212 (antisense eT*eT*eG*eA*eT*dG*dT*dA*dT*d[5mC]*dT*d[5mC]*dA*dT*d[5mC]*eT*eA*eG*e[5mC]*eA) [compound 301212] | – | – | % INHIB [1]: 41% |
| 301213 (antisense eT*eA*eG*eA*eA*d[5mC]*d[5mC]*dA*dT*dG*dT*dT*dT*dG*dG*eT*e[5mC]*eT*eT*e[5mC]) [compound 301213] | – | – | % INHIB [1]: 35% |
| 301214 (antisense eT*eT*eT*e[5mC]*eT*d[5mC]*dT*dT*dT*dA*dT*d[5mC]*dA*d[5mC]*dA*eT*eG*e[5mC]*e[5mC]*e[5mC]) [compound 301214] | – | – | % INHIB [1]: 29% |
| 301215 (antisense eT*eA*eT*eA*eG*dT*dA*d[5mC]*dA*d[5mC]*dT*dA*dA*dA*dA*e[5mC]*eT*eT*e[5mC]*eA) [compound 301215] | – | – | % INHIB [1]: 1% |
| 301216 (antisense e[5mC]*eT*eG*eG*eA*dG*dA*dG*dG*dA*d[5mC]*dT*dA*dA*dA*e[5mC]*eA*eG*eA*eG) [compound 301216] | – | – | % INHIB [1]: 49% |
| 301217 (antisense eA*eG*eA*e[5mC]*eT*d[5mC]*d[5mC]*dA*dT*dT*dT*dA*dT*dT*dT*eG*eT*eT*e[5mC]*e[5mC]) [compound 301217] | – | – | % INHIB (inhibition of human apolipoprotein B mRNA levels) (HepG2 cells treated with 150 nM of compound, quantitative real-time PCR): 81% |
| 301218 (antisense eA*e[5mC]*eA*eT*eT*dT*dT*dA*dT*d[5mC]*dA*dA*dT*dG*d[5mC]*e[5mC]*e[5mC]*eT*e[5mC]*eG) [compound 301218] | – | – | % INHIB (Table 15, 150 nM): 23% |
| 301219 (antisense eG*e[5mC]*e[5mC]*eA*eG*dA*dA*d[5mC]*dA*dT*dT*dT*dT*dA*dT*e[5mC]*eA*eA*eT*eG) [compound 301219] | – | – | % INHIB (Table 15, 150 nM): 35% |
| 301220 (antisense eA*eG*eA*eG*eG*dT*dT*dT*dT*dG*d[5mC]*dT*dG*dT*dG*e[5mC]*e[5mC]*eA*eG*eA) [compound 301220] | – | – | % INHIB (Table 15, 150 nM): 51% |
| 301221 (antisense e[5mC]*eT*eA*eG*eA*dG*dG*dT*dT*dT*dT*dG*d[5mC]*dT*dG*eT*eG*e[5mC]*e[5mC]*eA) [compound 301221] | – | – | % INHIB (Table 15, 150 nM): 61% |
| 301222 (antisense eT*e[5mC]*eT*eA*eG*dA*dG*dG*dT*dT*dT*dT*dG*d[5mC]*dT*eG*eT*eG*e[5mC]*e[5mC]) [compound 301222] | – | – | % INHIB (Table 15, 150 nM): 14% |
| 301223 (antisense eA*eA*eT*e[5mC]*eA*d[5mC]*dA*d[5mC]*dT*dA*dT*dG*dT*dG*dT*eT*e[5mC]*eT*eA*eG) [compound 301223] | – | – | % INHIB (Table 15, 150 nM): 26% |
| 301224 (antisense eA*eA*eA*eT*e[5mC]*dA*d[5mC]*dA*d[5mC]*dT*dA*dT*dG*dT*dG*eT*eT*e[5mC]*eT*eA) [compound 301224] | – | – | % INHIB (Table 15, 150 nM): 33% |
| 301225 (antisense eT*eA*eA*eA*eT*d[5mC]*dA*d[5mC]*dA*d[5mC]*dT*dA*dT*dG*dT*eG*eT*eT*e[5mC]*eT) [compound 301225] | – | – | % INHIB (Table 15, 150 nM): 3% |

| Substance | % INHIB 50 nm | % INHIB 150 nm (150 nM) | other results |
| --- | --- | --- | --- |
| 301226 (antisense e[5mC]*eT*eT*eA*eA*dA*dT*d[5mC]*dA*d[5mC]*dA*d[5mC]*dT*dA*dT*eG*eT*eG*eT*eT) [compound 301226] | – | – | % INHIB (Table 15, 150 nM): 39% |
| 301227 (antisense eT*eA*eT*eT*e[5mC]*dT*dG*dT*dT*dA*d[5mC]*dT*dT*dA*dA*eA*eT*e[5mC]*eA*e[5mC]) [compound 301227] | – | – | % INHIB (Table 15, 150 nM): 23% |
| 308589 (antisense e[5mC]*eT*eT*e[5mC]*eT*dG*d[5mC]*dT*dT*dG*dA*dG*dT*dT*dA*e[5mC]*eA*eA*eA*e[5mC]) [compound 308589] | 20% | 94% | – |
| 308590 (antisense eA*e[5mC]*e[5mC]*eT*eT*d[5mC]*dT*dG*d[5mC]*dT*dT*dG*dA*dG*dT*eT*eA*e[5mC]*eA*eA) [compound 308590] | 26% | 98% | – |
| 308591 (antisense eG*e[5mC]*eA*e[5mC]*e[5mC]*dT*dT*d[5mC]*dT*dG*d[5mC]*dT*dT*dG*dA*eG*eT*eT*eA*e[5mC]) [compound 308591] | 76% | 92% | – |
| 308592 (antisense eT*e[5mC]*eG*e[5mC]*eA*d[5mC]*d[5mC]*dT*dT*d[5mC]*dT*dG*d[5mC]*dT*dT*eG*eA*eG*eT*eT) [compound 308592] | 49% | 96% | – |
| 308593 (antisense e[5mC]*eT*eT*e[5mC]*eG*d[5mC]*dA*d[5mC]*d[5mC]*dT*dT*d[5mC]*dT*dG*d[5mC]*eT*eT*eG*eA*eG) [compound 308593] | 41% | 80% | – |
| 308594 (antisense eT*eG*e[5mC]*eT*eT*d[5mC]*dG*d[5mC]*dA*d[5mC]*d[5mC]*dT*dT*d[5mC]*dT*eG*e[5mC]*eT*eT*eG) [compound 308594] | 57% | 88% | – |
| 308595 (antisense eT*e[5mC]*eT*eG*e[5mC]*dT*dT*d[5mC]*dG*d[5mC]*dA*d[5mC]*d[5mC]*dT*dT*e[5mC]*eT*eG*e[5mC]*eT) [compound 308595] | 60% | 82% | – |
| 308596 (antisense eA*eG*eT*e[5mC]*eT*dG*d[5mC]*dT*dT*d[5mC]*dG*d[5mC]*dA*d[5mC]*d[5mC]*eT*eT*e[5mC]*eT*eG) [compound 308596] | 81% | 94% | – |
| 308597 (antisense eT*e[5mC]*eA*eG*eT*d[5mC]*dT*dG*d[5mC]*dT*dT*d[5mC]*dG*d[5mC]*dA*e[5mC]*e[5mC]*eT*eT*e[5mC]) [compound 308597] | 66% | 91% | – |
| 308598 (antisense e[5mC]*e[5mC]*eT*e[5mC]*eA*dG*dT*d[5mC]*dT*dG*d[5mC]*dT*dT*d[5mC]*dG*e[5mC]*eA*e[5mC]*e[5mC]*eT) [compound 308598] | 59% | 85% | – |
| 308599 (antisense eA*eG*e[5mC]*e[5mC]*eT*d[5mC]*dA*dG*dT*d[5mC]*dT*dG*d[5mC]*dT*dT*e[5mC]*eG*e[5mC]*eA*e[5mC]) [compound 308599] | 79% | 94% | – |
| 308600 (antisense eG*eT*eA*eG*e[5mC]*d[5mC]*dT*d[5mC]*dA*dG*dT*d[5mC]*dT*dG*d[5mC]*eT*eT*e[5mC]*eG*e[5mC]) [compound 308600] | 72% | 89% | – |
| 308601 (antisense eT*eG*eG*eT*eA*dG*d[5mC]*d[5mC]*dT*d[5mC]*dA*dG*dT*d[5mC]*dT*eG*e[5mC]*eT*eT*e[5mC]) [compound 308601] | 63% | 91% | – |
| 308602 (antisense e[5mC]*eA*eT*eG*eG*dT*dA*dG*d[5mC]*d[5mC]*dT*d[5mC]*dA*dG*dT*e[5mC]*eT*eG*e[5mC]*eT) [compound 308602] | 83% | 92% | – |
| 308603 (eG*eT*e[5mC]*eA*eT*dG*dG*dT*dA*dG*d[5mC]*d[5mC]*dT*d[5mC]*dA*eG*eT*e[5mC]*eT*eG; antisense) [compound 308603] | 56% | 97% | – |
| 308604 (eA*eT*eG*eT*e[5mC]*dA*dT*dG*dG*dT*dA*dG*d[5mC]*d[5mC]*dT*e[5mC]*eA*eG*eT*e[5mC]; antisense) [compound 308604] | 73% | 90% | – |
| 308605 (eG*eA*eA*eT*eG*dT*d[5mC]*dA*dT*dG*dG*dT*dA*dG*d[5mC]*e[5mC]*eT*e[5mC]*eA*eG; antisense) [compound 308605] | 50% | 81% | – |
| 308606 (eT*eT*eG*eA*eA*dT*dG*dT*d[5mC]*dA*dT*dG*dG*dT*dA*eG*e[5mC]*e[5mC]*eT*e[5mC]; antisense) [compound 308606] | 54% | 97% | – |
| 308607 (eA*eT*eT*eT*eG*dA*dA*dT*dG*dT*d[5mC]*dA*dT*dG*dG*eT*eA*eG*e[5mC]*e[5mC]; antisense) [compound 308607] | 9% | 77% | – |
| 308608 (eA*eT*eA*eT*eT*dT*dG*dA*dA*dT*dG*dT*d[5mC]*dA*dT*eG*eG*eT*eA*eG; antisense) [compound 308608] | 70% | 85% | – |
